# Measurements from patent publication US20230265151A1, “GIP/GLP1 CO-AGONIST COMPOUNDS” (priority 2020, published 2023).
# pKi: −log10 of the molar value. Like-named read-outs stand apart in the source and are kept apart here.
# Assays:
# [1] = biological target: T1, human GLP-1 receptor (hGLP-1R) (Homo sapiens, UniProt P43220); assay: [125I]-GLP-1 binding, SPA with membranes of HEK293 cells expressing hGLP-1R
# T1 construct: expressed in transfected cells; crude membranes
# hGLP-1R = hGLP-1R (Homo sapiens, UniProt P43220); assay: Functional cAMP formation (HTRF) in HEK-293 clonal cells expressing hGLP-1R, 0.1% bovine casein, without or with 1.0% human serum albumin; format: cell-based; parameters: expressed in transfected cells; settings: for Emax: percent of maximal response to GLP-1(7-36)NH2; for EC50: hGLP-1R EC50, nM (SEM, n), cAMP, 37° C., 0.1% bovine casein (no human serum albumin), geometric mean
# In short: (§1)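 Cells were stimulated with peptide for 30 min at 37° C, then intracellular cAMP was measured by competitive HTRF (665/620 nm ratio) and converted to nM using a cAMP standard curve. Relative EC50 and Emax came from four-parameter logistic fits of percent maximal response against peptide concentration.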
# hGIPR = biological target: T2, hGIPR (Homo sapiens, UniProt P48546); assay: Functional cAMP formation (HTRF) in HEK-293 clonal cells expressing hGIPR, 0.1% bovine casein, without or with 1.0% human serum albumin; format: cell-based; settings: for Emax: percent of maximal response to GIP(1-42)NH2; for EC50: hGIPR EC50, nM (SEM, n), cAMP, 37° C.
# T2 construct: expressed in transfected cells
# T2 sequence (P48546 22-466): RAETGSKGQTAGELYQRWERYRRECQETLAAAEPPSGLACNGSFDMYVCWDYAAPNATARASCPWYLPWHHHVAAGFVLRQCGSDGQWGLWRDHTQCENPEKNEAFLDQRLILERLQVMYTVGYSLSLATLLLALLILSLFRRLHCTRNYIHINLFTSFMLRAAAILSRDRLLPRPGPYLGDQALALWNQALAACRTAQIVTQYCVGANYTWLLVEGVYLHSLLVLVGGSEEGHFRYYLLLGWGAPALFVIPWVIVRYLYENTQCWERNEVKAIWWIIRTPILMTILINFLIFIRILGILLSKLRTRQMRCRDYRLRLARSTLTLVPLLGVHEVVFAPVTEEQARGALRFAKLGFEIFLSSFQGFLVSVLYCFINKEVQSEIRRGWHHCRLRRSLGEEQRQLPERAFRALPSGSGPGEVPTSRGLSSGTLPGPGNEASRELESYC
# In short: as §1
# hGCGR = biological target: T3, hGCGR (Homo sapiens, UniProt P47871); assay: Functional cAMP formation (HTRF) in HEK-293 clonal cells expressing hGCGR, 0.1% bovine casein, without or with 1.0% human serum albumin; format: cell-based; settings: hGCGR EC50, nM (SEM, n), cAMP, 37° C.
# T3 construct: expressed in transfected cells
# In short: as §1
# [2] = HEK293, read-out: hGLP-1R Emax, % ± SEM, cAMP, 37° C., 0.1% bovine casein, arithmetic mean
# [3] = HEK293, read-out: hGIPR Emax, % ± SEM, cAMP, 37° C., 0.1% bovine casein and 1.0% human serum albumin
# [4] = 0.1% bovine casein (no human serum albumin), geometric mean
# [5] = 0.1% bovine casein and 1.0% human serum albumin, geometric mean (SEM, n)
# Sequence of hGLP-1R (P43220 24-463): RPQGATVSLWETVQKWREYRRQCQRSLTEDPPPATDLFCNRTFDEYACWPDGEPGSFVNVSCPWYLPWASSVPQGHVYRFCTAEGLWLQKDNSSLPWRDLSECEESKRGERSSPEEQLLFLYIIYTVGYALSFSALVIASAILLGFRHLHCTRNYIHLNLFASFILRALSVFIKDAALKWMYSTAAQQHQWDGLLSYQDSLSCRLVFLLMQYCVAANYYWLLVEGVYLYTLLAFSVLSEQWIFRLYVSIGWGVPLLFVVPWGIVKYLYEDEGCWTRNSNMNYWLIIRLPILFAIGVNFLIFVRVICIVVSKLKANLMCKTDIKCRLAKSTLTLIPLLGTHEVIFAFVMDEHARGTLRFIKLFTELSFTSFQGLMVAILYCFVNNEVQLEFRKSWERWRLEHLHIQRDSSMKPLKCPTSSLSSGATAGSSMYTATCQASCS
# T1 sequence (P43220 24-463): as above
# T3 sequence (P47871 26-477): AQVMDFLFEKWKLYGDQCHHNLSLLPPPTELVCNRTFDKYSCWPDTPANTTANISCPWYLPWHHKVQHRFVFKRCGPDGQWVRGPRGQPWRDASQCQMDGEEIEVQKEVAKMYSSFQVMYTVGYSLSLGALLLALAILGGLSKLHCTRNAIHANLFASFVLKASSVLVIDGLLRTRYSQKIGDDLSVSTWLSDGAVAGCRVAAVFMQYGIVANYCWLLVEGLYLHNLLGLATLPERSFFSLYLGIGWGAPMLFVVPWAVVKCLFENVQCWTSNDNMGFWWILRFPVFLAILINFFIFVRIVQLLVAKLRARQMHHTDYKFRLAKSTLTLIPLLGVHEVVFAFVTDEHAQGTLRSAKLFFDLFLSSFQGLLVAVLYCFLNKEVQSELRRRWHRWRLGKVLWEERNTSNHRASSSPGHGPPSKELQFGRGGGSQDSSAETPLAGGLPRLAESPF
Compound,pKi [1],"Emax (hGLP-1R; HEK293, read-out: hGLP-1R Emax, % ± SEM, cAMP, 37° C., 0.1% bovine casein and 1.0% human serum albumin) [%]",Emax (hGLP-1R; [2]) [%],EC50 (hGLP-1R) [nM],Emax (hGIPR; [3]) [%],EC50 (hGIPR; [4]) [nM],EC50 (hGCGR; [4]) [nM],EC50 (hGCGR; [5]) [nM],"Emax (hGIPR; HEK293, read-out: hGIPR Emax, % ± SEM, cAMP, 37° C., 0.1% bovine casein, arithmetic mean) [%]",EC50 (hGIPR; [5]) [nM]
CC[C@H](C)[C@H](NC(=O)[C@H](CC(C)C)NC(=O)[C@](C)(Cc1ccc(O)cc1)NC(=O)[C@H](CCCCNC(=O)COCCOCCNC(=O)[C@H]1CC[C@H](CNC(=O)CC[C@H](NC(=O)CCCCCCCCCOc2ccc(C(=O)O)cc2)C(=O)O)CC1)NC(=O)[C@@H](NC(=O)[C@H](Cc1ccccc1)NC(=O)[C@H](CCCN)NC(=O)C(C)(C)NC(=O)[C@H](CCC(N)=O)NC(=O)[C@H](C)NC(=O)[C@H](CCC(N)=O)NC(=O)[C@H](CCCN)NC(=O)[C@H](CC(=O)O)NC(=O)[C@H](CC(C)C)NC(=O)[C@](C)(CC(C)C)NC(=O)[C@@H](NC(=O)C(C)(C)NC(=O)[C@H](Cc1ccncc1)NC(=O)[C@H](CC(=O)O)NC(=O)[C@H](CO)NC(=O)[C@@H](NC(=O)[C@](C)(Cc1ccccc1F)NC(=O)[C@@H](NC(=O)CNC(=O)[C@H](CCC(=O)O)NC(=O)C(C)(C)NC(=O)[C@@H](N)Cc1ccc(O)cc1)[C@@H](C)O)[C@@H](C)O)[C@@H](C)CC)[C@@H](C)CC)C(=O)N[C@@H](CCCCNC(=O)COCCOCCNC(=O)[C@H]1CC[C@H](CNC(=O)CC[C@H](NC(=O)CCCCCCCCCOc2ccc(C(=O)O)cc2)C(=O)O)CC1)C(=O)NCC(=O)NCC(=O)N1CCC[C@H]1C(=O)N[C@@H](CO)C(=O)N[C@@H](CO)C(=O)NCC(=O)N[C@@H](C)C(=O)N1CCC[C@H]1C(=O)N1CCC[C@H]1C(=O)N1CCC[C@H]1C(=O)N[C@@H](CO)C(N)=O [Example 473],9.77,114,118,0.192,92.8,0.0163,> 9950,> 9950,,
CC[C@H](C)[C@H](NC(=O)[C@H](CC(C)C)NC(=O)[C@](C)(Cc1ccc(O)cc1)NC(=O)[C@H](CCCCNC(=O)COCCOCCNC(=O)CC[C@H](NC(=O)COCCOCCNC(=O)CC[C@H](NC(=O)CCCCCCCCCOc1ccc(C(=O)O)cc1)C(=O)O)C(=O)O)NC(=O)[C@@H](NC(=O)[C@H](Cc1ccccc1)NC(=O)[C@H](CCCN)NC(=O)C(C)(C)NC(=O)[C@H](CCC(N)=O)NC(=O)[C@H](C)NC(=O)[C@H](CCC(N)=O)NC(=O)[C@H](CCCN)NC(=O)[C@H](CC(=O)O)NC(=O)[C@H](CC(C)C)NC(=O)[C@](C)(CC(C)C)NC(=O)[C@@H](NC(=O)C(C)(C)NC(=O)[C@H](Cc1ccncc1)NC(=O)[C@H](CC(=O)O)NC(=O)[C@H](CO)NC(=O)[C@@H](NC(=O)[C@](C)(Cc1ccccc1F)NC(=O)[C@@H](NC(=O)CNC(=O)[C@H](CCC(=O)O)NC(=O)C(C)(C)NC(=O)[C@@H](N)Cc1ccc(O)cc1)[C@@H](C)O)[C@@H](C)O)[C@@H](C)CC)[C@@H](C)CC)C(=O)N[C@@H](CCCCNC(=O)COCCOCCNC(=O)CC[C@H](NC(=O)COCCOCCNC(=O)CC[C@H](NC(=O)CCCCCCCCCOc1ccc(C(=O)O)cc1)C(=O)O)C(=O)O)C(=O)NCC(=O)NCC(=O)N1CCC[C@H]1C(=O)N[C@@H](CO)C(=O)N[C@@H](CO)C(=O)NCC(=O)N[C@@H](C)C(=O)N1CCC[C@H]1C(=O)N1CCC[C@H]1C(=O)N1CCC[C@H]1C(=O)N[C@@H](CO)C(N)=O [Example 485],9.52,,115,0.153,93.8,0.0113,> 10100,> 9950,,
CC[C@H](C)[C@H](NC(=O)[C@H](CC(C)C)NC(=O)[C@](C)(Cc1ccc(O)cc1)NC(=O)[C@H](CCCCNC(=O)COCCOCCNC(=O)CC[C@H](NC(=O)CC[C@H](NC(=O)CC[C@H](NC(=O)CCCCCCCCCOc1ccc(C(=O)O)cc1)C(=O)O)C(=O)O)C(=O)O)NC(=O)[C@@H](NC(=O)[C@H](Cc1ccccc1)NC(=O)[C@H](CCCN)NC(=O)C(C)(C)NC(=O)[C@H](CCC(N)=O)NC(=O)[C@H](C)NC(=O)[C@H](CCC(N)=O)NC(=O)[C@H](CCCN)NC(=O)[C@H](CC(=O)O)NC(=O)[C@H](CC(C)C)NC(=O)[C@](C)(CC(C)C)NC(=O)[C@@H](NC(=O)C(C)(C)NC(=O)[C@H](Cc1ccncc1)NC(=O)[C@H](CC(=O)O)NC(=O)[C@H](CO)NC(=O)[C@@H](NC(=O)[C@](C)(Cc1ccccc1F)NC(=O)[C@@H](NC(=O)CNC(=O)[C@H](CCC(=O)O)NC(=O)C(C)(C)NC(=O)[C@@H](N)Cc1ccc(O)cc1)[C@@H](C)O)[C@@H](C)O)[C@@H](C)CC)[C@@H](C)CC)C(=O)N[C@@H](CCCCNC(=O)COCCOCCNC(=O)CC[C@H](NC(=O)CC[C@H](NC(=O)CC[C@H](NC(=O)CCCCCCCCCOc1ccc(C(=O)O)cc1)C(=O)O)C(=O)O)C(=O)O)C(=O)NCC(=O)NCC(=O)N1CCC[C@H]1C(=O)N[C@@H](CO)C(=O)N[C@@H](CO)C(=O)NCC(=O)N[C@@H](C)C(=O)N1CCC[C@H]1C(=O)N1CCC[C@H]1C(=O)N1CCC[C@H]1C(=O)N[C@@H](CO)C(N)=O [Example 487],9.66,,116,0.199,89.1,0.0161,> 9950,> 9950,,
CC[C@H](C)[C@H](NC(=O)[C@H](CC(C)C)NC(=O)[C@](C)(Cc1ccc(O)cc1)NC(=O)[C@H](CCCCNC(=O)COCCOCCNC(=O)COCCOCCNC(=O)CC[C@H](NC(=O)CCCCCCCCCOc1ccc(C(=O)O)cc1)C(=O)O)NC(=O)[C@@H](NC(=O)[C@H](Cc1ccccc1)NC(=O)[C@H](Cc1ccncc1)NC(=O)C(C)(C)NC(=O)[C@H](CCC(N)=O)NC(=O)[C@H](C)NC(=O)[C@H](CCC(N)=O)NC(=O)[C@H](CCCN)NC(=O)[C@H](CC(=O)O)NC(=O)[C@H](CC(C)C)NC(=O)[C@](C)(CC(C)C)NC(=O)[C@@H](NC(=O)C(C)(C)NC(=O)[C@H](Cc1ccncc1)NC(=O)[C@H](CC(=O)O)NC(=O)[C@H](CO)NC(=O)[C@@H](NC(=O)[C@](C)(Cc1ccccc1F)NC(=O)[C@@H](NC(=O)CNC(=O)[C@H](CCC(=O)O)NC(=O)C(C)(C)NC(=O)[C@@H](N)Cc1ccc(O)cc1)[C@@H](C)O)[C@@H](C)O)[C@@H](C)CC)[C@@H](C)CC)C(=O)N[C@@H](CCCCNC(=O)COCCOCCNC(=O)COCCOCCNC(=O)CC[C@H](NC(=O)CCCCCCCCCOc1ccc(C(=O)O)cc1)C(=O)O)C(=O)NCC(=O)NCC(=O)N1CCC[C@H]1C(=O)N[C@@H](CO)C(=O)N[C@@H](CO)C(=O)NCC(=O)N[C@@H](C)C(=O)N1CCC[C@H]1C(=O)N1CCC[C@H]1C(=O)N1CCC[C@H]1C(=O)N[C@@H](CO)C(N)=O [Example 493],9.60,,126,0.184,94.6,0.0155,> 9950,> 9950,105,0.591
